* marks the point of attachment. Biotin = O=C1N[C@H]2[C@H](CS[C@H]2CCCCC(=O)*)N1
Assays:
[1] = test system: SH3 domain of Nck
[2] = biological target: SH3 domain of Abl (Homo sapiens, UniProt P00519); experiment: Stated SH3 domain binding of recognition unit
SH3 domain of Abl, sequence (P00519 61-121 limits assumed): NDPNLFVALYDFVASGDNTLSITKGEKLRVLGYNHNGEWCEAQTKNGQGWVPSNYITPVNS

| Substance | binding to the SH3 domain of Nck [1] | binding to the SH3 domain of Abl [2] |
| --- | --- | --- |
| Biotin-SRSLSEVSPKPPIRSVSLSR-NH2 [PXXP.NCK.S1/4] | bind | – |
| Biotin-SRPPRWSPPPVPLPTSLDSR-NH2 [PXXP.ABL.G1/2M] | – | bind |

Source: patent US7223547B2, “Polypeptides having a functional domain of interest and methods of identifying and using same” (Cytogen Corporation, priority 1995, dated 2007)
